In ChEMBL document CHEMBL5653594, “ZD1839 (Iressa): an orally active inhibitor of epidermal growth factor signaling with potential for cancer therapy” (Cancer Res, 2002):

Key:
[1] = tested on: A-431; assay: Antitumor activity against human A-431 cells xenografted in po dosed Swiss nu/nu mouse assessed as reduction in c-fos mRNA expression measured after 4 days by RT-PCR analysis; type: functional, organism-based; details: dose 12.5-200 mg/kg, time 4.0 day
[2] = tested on: A-431; assay: Antitumor activity against human A-431 cells xenografted in Swiss nu/nu mouse assessed as reduction in c-fos mRNA expression at 50 mg/kg measured after 36 hrs by RT-PCR analysis relative to control; type: functional; set-up: scale not given: the % may be the effect or the level left
[3] = tested on: A-431; assay: Antitumor activity against human A-431 cells xenografted in Swiss nu/nu mouse assessed as reduction in c-fos mRNA expression at 200 mg/kg measured after 36 hrs by RT-PCR analysis relative to control; type: functional; set-up: scale not given: the % may be the effect or the level left
[4] = tested on: A-431; assay: Antitumor activity against human A-431 cells xenografted in Swiss nu/nu mouse assessed as c-fos mRNA expression at 50 mg/kg measured after 6 to 36 hrs by RT-PCR analysis relative to control; type: functional; details: time 6-36 hrs

## COc1cc2ncnc(Nc3ccc(F)c(Cl)c3)c2cc1OCCCN1CCOCC1 [GEFITINIB]
[1]
  Activity: Dose-Dependent Effect
[2]
  Activity: 94%
[3]
  Activity: >99%
[4]
  Activity: 5%
